Data: patent US20170304178A1, “Peptides and Their Use in the Treatment of Skin” (AVON PRODUCTS, INC., priority 2014, published 2017)
Marks after values point to notes of the source that are not given here. Residues, ends and D or L forms follow the SMILES beside them.

What was measured:
[1] = tested on: human dermal fibroblast cells; assay: Secreted pro-collagen I in media of human dermal fibroblasts (HTRF human pro-collagen I kit); assay type: cell-based; settings: 48 h, percent change relative to vehicle control
Description: (§1) Human dermal fibroblast cells were grown in a 96 well plate in DMEM media (available from Corning, N.Y.) supplemented with 10% Fetal Bovine Serum (FBS) and L-glutamine (0.07×10^5 cells/plate). After reaching about 75% confluence, cells were transferred into DMEM media without FBS and incubated for 4-6 hours. Next, cells were treated with peptides of Formulas I-V at 0.00001%, 0.0001%, 0.001% final concentration in DMEM media without FBS for 48 h. After treatment the media were collected, and cell viability was measured using MTT. The amount of secreted collagen was tested in the media using HTRF human pro-collagen I kit (Cisbio Inc, Bedford, Mass.). The amount of secreted Hyaluronic Acid (HA) was tested in the media using HA Elisa kit (available from Corgenix, Broomfield, Colo.).
(§2) Results are summarized in Table 1 below as percent change of pro-collagen I and HA production relative to vehicle control: […]

[2] = tested on: human dermal fibroblast cells; assay: Secreted hyaluronic acid (HA) in media of human dermal fibroblasts (HA Elisa kit); assay type: cell-based; settings: 48 h, percent change relative to vehicle control
Description: as §1, §2

Compound | Increase in Pro-Collagen I Production ([1]; peptide concentration 0.001%) | Increase in HA Production ([2]; peptide concentration 0.001%) | Increase in HA Production ([2]; peptide concentration 0.0001%) | Increase in Pro-Collagen I Production ([1]; peptide concentration 0.00001%)
CCC(C)C(N)C(=O)NC(Cc1ccccc1)C(=O)NCC(=O)NCC(=O)NC(C(=O)NC(C(=O)NC(Cc1ccc(O)cc1)C(=O)NC(CCCNC(=N)N)C(=O)NC(CO)C(=O)O)C(C)C)C(C)O (stereo not drawn) [IFGGTVYRS (SEQ ID NO: 4), Ile-Phe-Gly-Gly-Thr-Val-Tyr-Arg-Ser] (H-IFGGTVYRS-OH; configuration not given here) | +10-30% | +50-90% |  | 
CSCCC(N)C(=O)NC(C(=O)NC(C(=O)O)C(C)C)C(C)C (stereo not drawn) [MVV (SEQ ID NO: 2), Met-Val-Val] (H-Met-Val-Val-OH; configuration not given here) |  |  | +20-50% | 
CC(C)CC(N)C(=O)NC(CCCNC(=N)N)C(=O)NC(CC(C)C)C(=O)NC(CCCCN)C(=O)O (stereo not drawn) [LRLK (SEQ ID NO: 1), Leu-Arg-Leu-Lys] (H-LRLK-OH; configuration not given here) |  | +20-50% |  | 
CC(NC(=O)CNC(=O)C(CC(=O)O)NC(=O)C(CCCCN)NC(=O)C(C)NC(=O)C(N)C(C)O)C(=O)NC(C(=O)O)C1CCCN1 (stereo not drawn) [TAKDGAP (SEQ ID NO: 3), Thr-Ala-Lys-Asp-Gly-Ala-Pro] |  | +50-90% |  | +10-30%**
CCC(C)C(NC(=O)C(CCCCN)NC(=O)C(NC(=O)C(NC(=O)C(N)CCCNC(=N)N)C(C)O)C1CCCN1)C(=O)NC(CO)C(=O)NC(CCCCN)C(=O)NC(C(=O)NC(C(=O)NC(CCCCN)C(=O)NC(Cc1ccccc1)C(=O)NC(CCC(=O)O)C(=O)NC(CC(C)C)C(=O)NC(CO)C(=O)NCC(=O)O)C(C)CC)C1CCCN1 (stereo not drawn) [RTPKISKPIKFELSG (SEQ ID NO: 5), Arg-Thr-Pro-Lys-Ile-Ser-Lys-Pro-Ile-Lys-Phe-Glu-Leu-Ser-Gly] |  | +20-50% |  | 
